Assay results reported in patent US9156816B2 (priority 2010, dated 2015).

Experiments:
[1] = system: tomato late blight pathogen (Phytophthora infestans); assay: whole plant or invertebrate; format: in vivo; conditions: 96 h, read-out: control value
Pythium ultimum = assay: Cucumber damping-off (PU) control test; format: in vivo; conditions: Globisporangium ultimum, 168 h, soil irrigated with 30 ml emulsion at active ingredient concentration of 100 ppm, ratio of healthy seedlings on day 7 after planting vs untreated group
Method: 40 ml of sterile soil were placed in plastic cups followed by leveling the surface of the soil. The soil was then irrigated with 30 ml of the aforementioned emulsion of Preparation Example 2 at an active ingredient concentration of 100 ppm. Following irrigation, cucumbers (variety: Sagami Hanjiro) were planted in the soil and covered with 20 ml of contaminated soil (containing Pythium ultimum) from above. The cups were then placed in plastic bags and allowed to stand undisturbed for 3 days in a constant temperature room at 25° C. (dark location […]). Next, the plants were removed from the bags and held in a constant temperature room at 25° C. using a light-dark cycle of 12 hours. On day 7 after planting, the ratios of healthy seedlings were compared between an untreated group and treated group to calculate control effects (control values).

Pythium aphanidermatum = assay: Antimicrobial test (mycelia growth inhibition); format: cell-based; conditions: compound concentration of 1 ppm, PSY medium, 25° C., days 3 to 7 of culturing, read-out: mycelia growth inhibition rate
Method: The compound according to the present invention was dissolved in dimethylsulfoxide and diluted to double the prescribed concentration in a 96-well microplate using PSY medium to obtain a drug solution. On the other hand, a diluted dimethylsulfoxide solution was prepared using PSY medium for use as an untreated group.
A suspension of liquid-cultured test microorganisms (Pythium aphanidermatum) was mixed with an equal volume of the drug solution and cultured in a dark location at 25° C. Mycelia growth was observed on days 3 to 7 of culturing to determine mycelia growth inhibition rates.

Row | Compound | pest or weed control at 100 µg/mL [1] [%] | pest or weed control at 100 ppm (Pythium ultimum) [%] | inhibition at 1 ppm (Pythium aphanidermatum) [%] | melting point [°C]
1 | COC(OC)C(=O)Nc1cccc(CO/N=C(/c2ccccc2)c2nnnn2C)n1 [a-3] | ≥ 70 | ≥ 50 | ≥ 50 | 88 to 90
2 | Cn1nnnc1/C(=N\OCc1cccc(NC(=O)CC2OCCCO2)n1)c1ccccc1 [a-14] | ≥ 70 | ≥ 50 | ≥ 50 | 107 to 108
3 | CCOC(C)(OCC)C(=O)Nc1cccc(CO/N=C(/c2ccccc2)c2nnnn2C)n1.Cl [a-33] |  |  | ≥ 50 | 70 to 73
4 | COCC(C)C(=O)Nc1cccc(CO/N=C(/c2ccccc2)c2nnnn2C)n1 (centres unmarked) [b-3] |  | ≥ 50 | ≥ 50 | 66 to 68
5 | COC(C)(C)C(=O)Nc1cccc(CO/N=C(/c2ccccc2)c2nnnn2C)n1 [b-6] |  |  | ≥ 50 | 104 to 105
6 | Cn1nnnc1/C(=N\OCc1cccc(NC(=O)C(C)(C)O)n1)c1ccccc1 [b-7] |  |  | ≥ 50 | 144 to 146
7 | COCC(C)(C)C(=O)Nc1cccc(CO/N=C(/c2ccccc2)c2nnnn2C)n1 [b-8] |  | ≥ 50 | ≥ 50 | 60 to 61
8 | COCCC(C)(C)C(=O)Nc1cccc(CO/N=C(/c2ccccc2)c2nnnn2C)n1 [b-10] |  | ≥ 50 | ≥ 50 | 86 to 87
9 | Cn1nnnc1/C(=N\OCc1cccc(NC(=O)OCC2COCO2)n1)c1ccccc1 (centres unmarked) [c-4] | ≥ 70 | ≥ 50 | ≥ 50 | 104 to 105
10 | COC(COC(=O)Nc1cccc(CO/N=C(/c2ccccc2)c2nnnn2C)n1)OC [c-7, (Z)-(1-methyl-1H-tetrazol-5-yl)phenylmethanone-o-[2-(2,2-dimethoxyethoxycarbonylamino)pyridin-6-ylmethyl]oxime] | ≥ 70 | ≥ 50 | ≥ 50 | 
11 | CCOC(CCOC(=O)Nc1cccc(CO/N=C(/c2ccccc2)c2nnnn2C)n1)OCC [c-8] | ≥ 70 | ≥ 50 | ≥ 50 | 
12 | COC(CC(C)(C)OC(=O)Nc1cccc(CO/N=C(/c2ccccc2)c2nnnn2C)n1)OC [c-9] | ≥ 70 | ≥ 50 | ≥ 50 | 
13 | CCOC(COC(=O)Nc1cccc(CO/N=C(/c2ccccc2)c2nnnn2C)n1)OCC [c-10] | ≥ 70 | ≥ 50 | ≥ 50 | 
14 | CCOC(OC(=O)Nc1cccc(CO/N=C(/c2ccccc2)c2nnnn2C)n1)C(F)(F)F (stereo not drawn) [d-1] | ≥ 70 |  | ≥ 50 | 123 to 124
15 | Cn1nnnc1/C(=N\OCc1cccc(NC(=O)OC2CCOCC2)n1)c1ccccc1 [d-3] | ≥ 70 |  | ≥ 50 | 72 to 73
16 | Cn1nnnc1/C(=N\OCc1cccc(NC(=O)OC2CCOC2)n1)c1ccccc1 (stereo not drawn) [d-4] | ≥ 70 |  |  | 76 to 78
17 | COCCCC(C)(C)OC(=O)Nc1cccc(CO/N=C(/c2ccccc2)c2nnnn2C)n1 [d-8] | ≥ 70 | ≥ 50 | ≥ 50 | 
18 | CCOCCC(C)OC(=O)Nc1cccc(CO/N=C(/c2ccccc2)c2nnnn2C)n1 (stereo not drawn) [d-13] | ≥ 70 | ≥ 50 | ≥ 50 | 
19 | COCCC(C)OC(=O)Nc1cccc(CO/N=C(/c2ccccc2)c2nnnn2C)n1 (stereo not drawn) [d-14] | ≥ 70 | ≥ 50 | ≥ 50 | 
20 | CCOCCCOC(=O)Nc1cccc(CO/N=C(/c2ccccc2)c2nnnn2C)n1 [d-15] | ≥ 70 | ≥ 50 | ≥ 50 | 
21 | CCOCC(COC(=O)Nc1cccc(CO/N=C(/c2ccccc2)c2nnnn2C)n1)OCC (stereo not drawn) [d-17] | ≥ 70 | ≥ 50 | ≥ 50 | 
22 | CCOCC(CCOC(=O)Nc1cccc(CO/N=C(/c2ccccc2)c2nnnn2C)n1)OCC (stereo not drawn) [d-18] | ≥ 70 | ≥ 50 | ≥ 50 | 
